Laboratory results taken from ChEMBL document CHEMBL4342418, “1,2,3-Triazole-containing hybrids as potential anticancer agents: Current developments, action mechanisms and structure-activity relationships” (Eur J Med Chem, 2019).
≈ marks a conversion by molar mass, not a printed value. Blank lines part the entries; values can stand above or below the molecule they belong to.

Columns and labels:
SK-BR-3 = experiment: Antiproliferative activity against human SKBR3 cells assessed as reduction in cell viability after 24 hrs by MTT assay; assay type: functional, cell-based; conditions: SK-BR-3, 24 h
HepG2 [1] = experiment: Antiproliferative activity against human HepG2 cells assessed as reduction in cell viability after 24 hrs by MTT assay; assay type: functional, cell-based; conditions: HepG2, 24 h
HeLa [2] = experiment: Antiproliferative activity against human HeLa cells assessed as reduction in cell viability after 24 hrs by MTT assay; assay type: functional, cell-based
T47D = experiment: Antiproliferative activity against human T47D cells assessed as reduction in cell viability after 48 hrs by MTT assay; assay type: functional, cell-based
SNB-19 = experiment: Antiproliferative activity against human SNB19 cells assessed as reduction in cell viability after 48 hrs by MTT assay; assay type: functional, cell-based; conditions: SNB-19, 48 h
MCF7 [3] = experiment: Antiproliferative activity against human MCF7 cells assessed as reduction in cell viability after 48 hrs by MTT assay; assay type: functional, cell-based; conditions: MCF7, 48 h
MCF7 [4] = experiment: Potency index, ratio of foretinib IC50 to test compound IC50 for antiproliferative activity against human MCF7 cells; assay type: functional
HepG2 [5] = experiment: Antiproliferative activity against human HepG2 cells assessed as reduction in cell viability after 72 hrs by MTT assay; assay type: functional, cell-based; conditions: HepG2, 72 h
A549 [6] = experiment: Antiproliferative activity against human A549 cells assessed as reduction in cell viability after 72 hrs by MTT assay; assay type: functional, cell-based; conditions: A549, 72 h
HepG2 [7] = experiment: Potency index, ratio of foretinib IC50 to test compound IC50 for antiproliferative activity against human HepG2 cells; assay type: functional
MCF7 [8] = experiment: Antiproliferative activity against human MCF7 cells assessed as reduction in cell viability after 72 hrs by MTT assay; assay type: functional, cell-based; conditions: MCF7, 72 h
A549 [9] = experiment: Potency index, ratio of foretinib IC50 to test compound IC50 for antiproliferative activity against human A549 cells; assay type: functional
NCI-H23 = experiment: cells; assay type: functional, cell-based; conditions: Homo sapiens, NCI-H23, 48 h
Description: Antiproliferative activity against human NCI-H23 cells assessed as reduction in cell viability after 48 hrs by MTT assay

PC-3 = experiment: cells; assay type: functional, cell-based; conditions: Homo sapiens, PC-3, 48 h
Description: Antiproliferative activity against human PC3 cells assessed as reduction in cell viability after 48 hrs by MTT assay

SW-620 = experiment: cells; assay type: functional, cell-based; conditions: Homo sapiens, SW-620, 48 h
Description: Antiproliferative activity against human SW620 cells assessed as reduction in cell viability after 48 hrs by MTT assay

ASPC1 = experiment: cells; assay type: functional, cell-based; conditions: Homo sapiens, ASPC1, 48 h
Description: Antiproliferative activity against human Aspc-1 cells assessed as reduction in cell viability after 48 hrs by MTT assay

Caov-3 cell line = experiment: Antiproliferative activity against human Caov3 cells by SRB assay; assay type: functional
SK-OV-3 = experiment: Antiproliferative activity against human SKOV3 cells by SRB assay; assay type: functional, cell-based
OVCAR-3 = experiment: Antiproliferative activity against human OVCAR3 cells by SRB assay; assay type: functional
NCI-H460 = experiment: Antiproliferative activity against human H460 cells by MTT assay; assay type: functional, cell-based
NCI-H1299 = experiment: Antiproliferative activity against human H1299 cells by MTT assay; assay type: functional, cell-based
MGC-803 = experiment: Antiproliferative activity against human MGC803 cells by MTT assay; assay type: functional, cell-based
Ca-Ski = experiment: Antiproliferative activity against human CaSki cells by MTT assay; assay type: functional, cell-based
HeLa [10] = experiment: Antiproliferative activity against human HeLa cells; assay type: functional, cell-based
HepG2 [11] = experiment: Antiproliferative activity against human HepG2 cells; assay type: functional, cell-based
A549 [12] = experiment: Antiproliferative activity against human A549 cells; assay type: functional, cell-based
A549/TR = experiment: Antiproliferative activity against human A549/TR cells assessed as reduction in cell viability after 72 hrs by MTT assay; assay type: functional, cell-based
A549 [13] = experiment: Antitumour activity against human A549 cells xenografted in Kunming mice assessed as tumour growth inhibition at 50 mg/kg, po administered and measured after week relative to control; assay type: functional; conditions: Mus musculus, read-out: TGI
A549 [14] = experiment: Antitumour activity against human A549 cells xenografted in Kunming mice assessed as tumour growth inhibition at 10 mg/kg, iv bid administered and measured after week hrs relative to control; assay type: functional; conditions: Mus musculus, read-out: TGI
U-251 = experiment: Antiproliferative activity against human U251 cells assessed as reduction in cell viability after 72 hrs by MTT assay; assay type: functional, cell-based; conditions: U-251, 72 h
A549 [15] = experiment: Antitumour activity against human A549 cells xenografted in Kunming mice assessed as tumour growth inhibition at 5 mg/kg, iv bid administered and measured after week relative to control; assay type: functional; conditions: Mus musculus, read-out: TGI
A549/CDDP = experiment: Antiproliferative activity against human A549/CDDP cells assessed as reduction in cell viability after 72 hrs by MTT assay; assay type: functional, cell-based
A549 [16] = experiment: Antitumour activity against human A549 cells xenografted in Kunming mice assessed as tumour growth inhibition at 20 mg/kg, iv bid administered and measured after week relative to control; assay type: functional; conditions: Mus musculus, read-out: TGI
HCT-116 = experiment: Antiproliferative activity against human HCT116 cells assessed as reduction in cell viability after 72 hrs by MTT assay; assay type: functional, cell-based; conditions: HCT-116, 72 h

IC50 (SK-BR-3): 7.1 µg/mL (≈ 16.4 µM)
IC50 (HepG2 [1]): 11.2 µg/mL (≈ 25.9 µM)
IC50 (HeLa [2]): 6.8 µg/mL (≈ 15.7 µM)
SMILES: COc1ccc(-c2nnn(Cc3cc(F)ccc3F)c2-c2nc3cc(C)ccc3o2)cc1

GI50 (SK-OV-3): 10 to 20 µM
GI50 (OVCAR-3): 10 to 20 µM
SMILES: COc1cc(O)c2c(=O)cc(-c3ccc(OCc4cn(-c5ccccc5F)nn4)cc3)oc2c1
GI50 (Caov-3 cell line): 10 to 20 µM

IC50 (HeLa [10]): 8.73 to 9.16 µM
IC50 (HepG2 [11]): 8.73 to 9.16 µM
IC50 (A549 [12]): 8.73 to 9.16 µM
SMILES: CCCCCCc1ccc(-c2cn(Cc3cc(=O)oc4cc(O)ccc34)nn2)cc1

More lines, now with the values behind:

SMILES: C=C(C)[C@@H]1CC[C@]2(OC(=O)c3cn(Cc4ccc(F)cc4)nn3)CC[C@]3(C)[C@H](CC[C@@H]4[C@@]5(C)CC[C@H](OC(=O)c6cn(Cc7ccc(F)cc7)nn6)C(C)(C)[C@@H]5CC[C@]43C)[C@@H]12
IC50 (T47D): 0.05 to 0.09 µM
IC50 (SNB-19): 0.05 to 0.09 µM
IC50 (MCF7 [3]): 0.05 to 0.09 µM

SMILES: O=C(Nc1ccc(Oc2ncnc3ccsc23)cc1)c1nnn(-c2ccc(Cl)cc2)c1C(F)(F)F
Ratio IC50 (MCF7 [4]): 3.6 - 5.2
IC50 (HepG2 [5]): 0.5 to 1 µM
IC50 (A549 [6]): 0.5 to 1 µM
Ratio IC50 (HepG2 [7]): 3.6 - 5.2
IC50 (MCF7 [8]): 0.5 to 1 µM
Ratio IC50 (A549 [9]): 3.6 - 5.2

SMILES: Cc1ccc2c(c1)/C(=N\O)C(=O)N2Cc1cn(CCCC(=O)NO)nn1
IC50 (NCI-H23): 0.49 to 0.76 µM
IC50 (PC-3): 0.49 to 0.76 µM
IC50 (SW-620): 0.49 to 0.76 µM
IC50 (ASPC1): 0.49 to 0.76 µM

SMILES: CO[C@H]1C[C@@H]2CC[C@@H](C)[C@@](O)(O2)C(=O)C(=O)N2CCCC[C@H]2C(=O)O[C@H]([C@H](C)C[C@@H]2CC[C@@H](OCCCn3cc(CNc4ccc(Cl)cc4Cl)nn3)[C@H](OC)C2)CC(=O)[C@H](C)/C=C(\C)[C@@H](O)[C@@H](OC)C(=O)[C@H](C)C[C@H](C)/C=C/C=C/C=C/1C
IC50 (NCI-H460): 6.05 to 25.9 µM
IC50 (NCI-H1299): 6.05 to 25.9 µM
IC50 (MGC-803): 6.05 to 25.9 µM
IC50 (Ca-Ski): 6.05 to 25.9 µM

SMILES: CC(C)=CCC12OC(C)(C)C3CC(C=C4C(=O)c5c(OCc6cn(CCN7CCOCC7)nn6)cccc5OC431)C2=O (stereo unspecified)
IC50 (A549/TR): 0.31 to 3.75 µM
IC50 (HepG2 [5]): 0.31 to 3.75 µM
IC50 (A549 [6]): 0.31 to 3.75 µM
inhibition in vivo at 50 mg/kg (A549 [13]): 66.4%
inhibition in vivo at 10 mg/kg (A549 [14]): 52.2%
IC50 (U-251): 0.31 to 3.75 µM
inhibition in vivo at 5 mg/kg (A549 [15]): 30.9%
IC50 (A549/CDDP): 0.31 to 3.75 µM
inhibition in vivo at 20 mg/kg (A549 [16]): 71.3%
IC50 (HCT-116): 0.31 to 3.75 µM
